From patent US20120264685A1 (priority 2009, published 2012)
Where a SMILES comes first, the peptide text is derived from it. [ ]: non-standard residue; d: D form. ξ: configuration not given here. ξαMeBip(2'-Et,4'-OMe) = CCc1cc(OC)ccc1-c1ccc(CC(C)(N)C(=O)O)cc1; ξαMePhe(2,6-F2) = CC(N)(Cc1c(F)cccc1F)C(=O)O; ξhhPhe = NC(CCCc1ccccc1)C(=O)O; ξαMeP = CC1(C(=O)O)CCCN1; ξαMeS = CC(N)(CO)C(=O)O

Test system: male C57BL/6J mice
Assay: Acute single dose 120-min time-course experiment, in vivo glucose reduction
Set-up: unit not given here
Details: n = 8, Mean ± SEM
Experimental: Acute single dose 120-min time-course experiments were carried out in male C57BL/6J or db/db mice, age 8-12 weeks, bred in-house. The animals were housed in groups of 6 animals per cage, for a week, in order to habituate them to vivarium conditions (25+4° C., 60-65% relative humidity, 12:12 h light: dark cycle, with lights on at 7.30 am). All the animal experiments were carried out according to the internationally valid guidelines following approval by the ‘Zydus Research Center animal ethical committee’.
[…] On the day of experiment, food was withdrawn from all the cages, water was given ad-libitum and were kept for overnight fasting. Vehicle (normal saline)/test/standard compounds were administered intraperitoneally (i.p.) or orally, on a body weight basis. Soon after the 0 min. blood collection from each animal, the subsequent blood collections were done at 30, 60 and 120 or upto 240 min., via retro-orbital route, under light ether anesthesia (Chen, D., et al., Diabetes Obesity Metabolism, 2005, 7, 307. Kim, J. G. et al., Diabetes, 2003, 52, 751).
The blood samples were centrifuged and the separated serum was immediately subjected for the glucose estimation. The serum for insulin estimation was stored at −70° C. until used for the insulin estimation. The glucose estimation was carried out with DPEC-GOD/POD method (Ranbaxy Fine Chemicals Limited, Diagnostic division, India), using Spectramax-190, in 96-microwell plate reader (Molecular devices Corporation, Sunnyvale, Calif.). […] The AUC and BCAUC obtained from graphs were analyzed for one way ANOVA, followed by Dunnett's post test, using Graph Pad prism software. Furthermore, the insulin estimation was carried out using rat/mouse insulin ELISA kit (Linco research, Missouri USA).

| SMILES | blood glucose level (in vivo glucose reduction) (2 μM/kg, oral, 0 min) | blood glucose level (in vivo glucose reduction) (2 μM/kg, oral, 30 min) | blood glucose level (in vivo glucose reduction) (2 μM/kg, oral, 60 min) | blood glucose level (in vivo glucose reduction) (2 μM/kg, oral, 120 min) | other results |
| --- | --- | --- | --- | --- | --- |
| CCc1cc(OC)ccc1-c1ccc(CC(NC(=O)[C@H](CC(=O)O)NC(=O)[C@H](CO)NC(=O)[C@@H](NC(=O)C(C)(Cc2c(F)cccc2F)NC(=O)[C@@H](NC(=O)CNC(=O)[C@H](CCC(N)=O)NC(=O)[C@H](CO)NC(=O)[C@H](Cc2c[nH]cn2)NC(=O)[C@@H](N)C(C)C)[C@@H](C)O)[C@@H](C)O)C(=O)NC(C)(CCCc2ccccc2)C(N)=O)cc1 (single isomer, unassigned) [Seq. ID. No. 99, VHSQGT-(αMe-2,6-diF-Phe)-TSD-Bip(OMe)-(αMe-APPA)] | 184 ± 2.5 | 118 ± 3.6 | 113 ± 4.2 | 110 ± 2.4 |  |
| CCc1cc(OC)ccc1-c1ccc(CC(C)(NC(=O)[C@H](CC(=O)O)NC(=O)[C@H](CO)NC(=O)[C@@H](NC(=O)C(C)(Cc2ccccc2F)NC(=O)[C@@H](NC(=O)CNC(=O)[C@H](CCC(=O)O)NC(=O)[C@H](CO)NC(=O)[C@H](Cc2c[nH]cn2)NC(=O)[C@@H](N)C(C)C)[C@@H](C)O)[C@@H](C)O)C(=O)NC(C)(CCCc2ccccc2)C(N)=O)cc1 (single isomer, unassigned) [Seq. ID. No. 145, VHSEGT-(αMe-2FPhe)-TSD-(αMe-Bip(OMe))-(αMe-APPA)] | 184 ± 2.2 | 118 ± 3.3 | 112 ± 4.4 | 110 ± 2.9 |  |
| CCc1cc(OC)ccc1-c1ccc(CC(C)(NC(=O)C(C)(CC(=O)O)NC(=O)[C@H](CO)NC(=O)[C@@H](NC(=O)[C@H](Cc2ccccc2)NC(=O)[C@@H](NC(=O)CNC(=O)[C@H](CCC(=O)O)NC(=O)C(C)(C)NC(=O)[C@H](Cc2c[nH]cn2)NC(=O)[C@@H](N)C(C)C)[C@@H](C)O)[C@@H](C)O)C(=O)NC(C)(CCCc2ccccc2)C(N)=O)cc1 (single isomer, unassigned) [Seq. ID. No. 187, VH-Aib-EGTFTS-(αMe-Asp)-(αMe-Bip(OMe))-(αMe-APPA)] | 183 ± 2.4 | 119 ± 3.1 | 112 ± 4.8 | 110 ± 2.5 |  |
| CCc1cc(OC)ccc1-c1ccc(CC(C)(NC(=O)[C@H](CC(=O)O)NC(=O)C(C)(CO)NC(=O)[C@@H](NC(=O)C(C)(Cc2c(F)cccc2F)NC(=O)[C@@H](NC(=O)CNC(=O)[C@H](CCC(=O)O)NC(=O)C2(C)CCCN2C(=O)[C@H](Cc2c[nH]cn2)NC(=O)[C@@H](N)C(C)C)[C@@H](C)O)[C@@H](C)O)C(=O)NC(CCCc2ccccc2)C(N)=O)cc1 (stereo partly drawn) [Seq. ID. No. 56, VH-(αMe-Pro)-EGT-(αMe-2,6-diFPhe)-T-(αMe-Ser)-D-(αMe-Bip(OMe))-(APPA)] (H-VH[ξαMeP]EGT[ξαMePhe(2,6-F2)]T[ξαMeS]D[ξαMeBip(2'-Et,4'-OMe)][ξhhPhe]-NH2) |  |  |  |  | blood glucose level (in vivo glucose reduction) (5 nM/kg, i.p, 0 min): 179 ± 5.0; blood glucose level (in vivo glucose reduction) (5 nM/kg, i.p, 30 min): 120 ± 3.6; blood glucose level (in vivo glucose reduction) (5 nM/kg, i.p, 60 min): 129 ± 2.0; blood glucose level (in vivo glucose reduction) (5 nM/kg, i.p, 120 min): 148 ± 1.7 |
| CCc1cc(OC)ccc1-c1ccc(CC(C)(NC(=O)C(C)(CC(=O)O)NC(=O)[C@H](CO)NC(=O)[C@@H](NC(=O)C(C)(Cc2c(F)cccc2F)NC(=O)[C@@H](NC(=O)CNC(=O)[C@H](CCC(N)=O)NC(=O)C(C)(C)NC(=O)[C@H](Cc2c[nH]cn2)NC(=O)[C@@H](N)C(C)C)[C@@H](C)O)[C@@H](C)O)C(=O)NC(C)(CCCc2ccccc2)C(N)=O)cc1 (single isomer, unassigned) [Seq. ID. No. 199, VH-Aib-QGT-(αMe-2,6-diFPhe)-TS-(αMe-Asp)-(αMe-Bip(OMe))-(αMe-APPA)] |  |  |  |  | blood glucose level (in vivo glucose reduction) (30 nM/kg, i.p, 0 min): 180 ± 1.2; blood glucose level (in vivo glucose reduction) (30 nM/kg, i.p, 30 min): 116 ± 3.2; blood glucose level (in vivo glucose reduction) (30 nM/kg, i.p, 60 min): 116 ± 3.1; blood glucose level (in vivo glucose reduction) (30 nM/kg, i.p, 120 min): 118 ± 1.8 |
| CCc1cc(OC)ccc1-c1ccc(CC(C)(NC(=O)C(C)(CC(=O)O)NC(=O)[C@H](CO)NC(=O)[C@@H](NC(=O)[C@H](Cc2ccccc2)NC(=O)[C@@H](NC(=O)CNC(=O)[C@H](CCC(N)=O)NC(=O)C(C)(C)NC(=O)[C@H](Cc2c[nH]cn2)NC(=O)[C@@H](N)C(C)C)[C@@H](C)O)[C@@H](C)O)C(=O)NC(CCCc2ccccc2)C(N)=O)cc1 (single isomer, unassigned) [Seq. ID. No. 59, VH-Aib-QGTFTS-(αMe-Asp)-(αMe-Bip(OMe))-(APPA)] | 184 ± 2.5 | 115 ± 3.6 | 113 ± 4.2 | 110 ± 2.4 |  |
| CCc1cc(OC)ccc1-c1ccc(CC(NC(=O)C(C)(CC(=O)O)NC(=O)C(C)(CO)NC(=O)[C@@H](NC(=O)C(C)(Cc2c(F)cccc2F)NC(=O)[C@@H](NC(=O)CNC(=O)[C@H](CCC(=O)O)NC(=O)C(C)(C)NC(=O)[C@H](Cc2c[nH]cn2)NC(=O)[C@@H](N)C(C)C)[C@@H](C)O)[C@@H](C)O)C(=O)NC(C)(CCCc2ccccc2)C(N)=O)cc1 (single isomer, unassigned) [Seq. ID. No. 129, VH-Aib-EGT-(αMe-2,6-diFPhe)-T-(αMe-Ser)-(αMe-Asp)-Bip(OMe)-(αMe-APPA)] | 183 ± 2.4 | 116 ± 3.1 | 112 ± 4.8 | 110 ± 2.5 |  |
| CCc1cc(OC)ccc1-c1ccc(CC(NC(=O)C(C)(CC(=O)O)NC(=O)C(C)(CO)NC(=O)[C@@H](NC(=O)C(C)(Cc2ccccc2F)NC(=O)[C@@H](NC(=O)CNC(=O)[C@H](CCC(N)=O)NC(=O)C2(C)CCCN2C(=O)[C@H](Cc2c[nH]cn2)NC(=O)[C@@H](N)C(C)C)[C@@H](C)O)[C@@H](C)O)C(=O)NC(C)(CCCc2ccccc2)C(N)=O)cc1 (single isomer, unassigned) [Seq. ID. No. 118, VH-(αMe-Pro)-QGT-(αMe-2FPhe)-T-(αMe-Ser)-(αMe-Asp)-Bip(OMe)-(αMe-APPA)] | 184 ± 2.5 | 115 ± 1.6 | 113 ± 3.2 | 110 ± 2.4 |  |
| CCc1cc(OC)ccc1-c1ccc(CC(C)(NC(=O)C(C)(CC(=O)O)NC(=O)[C@H](CO)NC(=O)[C@@H](NC(=O)C(C)(Cc2c(F)cccc2F)NC(=O)[C@@H](NC(=O)CNC(=O)[C@H](CCC(N)=O)NC(=O)C2(C)CCCN2C(=O)[C@H](Cc2c[nH]cn2)NC(=O)[C@@H](N)C(C)C)[C@@H](C)O)[C@@H](C)O)C(=O)NC(CCCc2ccccc2)C(N)=O)cc1 (single isomer, unassigned) [Seq. ID. No. 76, VH-(αMe-Pro)-QGT-(αMe-2,6-diFPhe)-TS-(αMe-Asp)-(αMe-Bip(OMe))-(APPA)] | 183 ± 2.4 | 116 ± 3.1 | 112 ± 4.8 | 110 ± 2.5 |  |
| CCc1cc(OC)ccc1-c1ccc(CC(C)(NC(=O)C(C)(CC(=O)O)NC(=O)[C@H](CO)NC(=O)[C@@H](NC(=O)[C@H](Cc2ccccc2)NC(=O)[C@@H](NC(=O)CNC(=O)[C@H](CCC(=O)O)NC(=O)C2(C)CCCN2C(=O)[C@H](Cc2c[nH]cn2)NC(=O)[C@@H](N)C(C)C)[C@@H](C)O)[C@@H](C)O)C(=O)NC(CCCc2ccccc2)C(N)=O)cc1 (single isomer, unassigned) [Seq. ID. No. 64, VH-(αMe-Pro)-EGTFTS-(αMe-Asp)-(αMe-Bip(OMe))-(APPA)] | 183 ± 2.4 | 116 ± 3.1 | 112 ± 4.8 | 110 ± 2.5 |  |
| CCc1cc(OC)ccc1-c1ccc(CC(C)(NC(=O)[C@H](CC(=O)O)NC(=O)C(C)(CO)NC(=O)[C@@H](NC(=O)C(C)(Cc2ccccc2F)NC(=O)[C@@H](NC(=O)CNC(=O)[C@H](CCC(N)=O)NC(=O)[C@H](C)NC(=O)[C@H](Cc2c[nH]cn2)NC(=O)[C@@H](N)C(C)C)[C@@H](C)O)[C@@H](C)O)C(=O)NC(C)(CCCc2ccccc2)C(N)=O)cc1 (single isomer, unassigned) [Seq. ID. No. 166, VHAQGT-(αMe-2FPhe)-T-(αMe-Ser)-D-(αMe-Bip(OMe))-(αMe-APPA)] |  |  |  |  | blood glucose level (in vivo glucose reduction) (0.5 μM/kg, oral, 0 min): 184 ± 2.5; blood glucose level (in vivo glucose reduction) (0.5 μM/kg, oral, 30 min): 115 ± 3.6; blood glucose level (in vivo glucose reduction) (0.5 μM/kg, oral, 60 min): 113 ± 4.2; blood glucose level (in vivo glucose reduction) (0.5 μM/kg, oral, 120 min): 110 ± 2.4 |
